Source: patent publication US20240317735A1, “HYDROISOQUINOLINE OR HYDRONAPHTHYRIDINE COMPOUNDS FOR THE TREATMENT OF AUTOIMMUNE DISEASE” (Hoffmann-La Roche Inc., priority 2020, published 2024)

What follows are compounds tested against T1, TLR9 (Homo sapiens, UniProt Q9NR96) (assay: HEK293-Blue-hTLR-9 cells assay (SEAP reporter, ODN2006 stimulation)). Conditions: HEK293-Blue-hTLR9 cells, ODN2006, 20 hrs; read-out: HEK/hTLR9 IC50.
T1 sequence (Q9NR96 26-1032): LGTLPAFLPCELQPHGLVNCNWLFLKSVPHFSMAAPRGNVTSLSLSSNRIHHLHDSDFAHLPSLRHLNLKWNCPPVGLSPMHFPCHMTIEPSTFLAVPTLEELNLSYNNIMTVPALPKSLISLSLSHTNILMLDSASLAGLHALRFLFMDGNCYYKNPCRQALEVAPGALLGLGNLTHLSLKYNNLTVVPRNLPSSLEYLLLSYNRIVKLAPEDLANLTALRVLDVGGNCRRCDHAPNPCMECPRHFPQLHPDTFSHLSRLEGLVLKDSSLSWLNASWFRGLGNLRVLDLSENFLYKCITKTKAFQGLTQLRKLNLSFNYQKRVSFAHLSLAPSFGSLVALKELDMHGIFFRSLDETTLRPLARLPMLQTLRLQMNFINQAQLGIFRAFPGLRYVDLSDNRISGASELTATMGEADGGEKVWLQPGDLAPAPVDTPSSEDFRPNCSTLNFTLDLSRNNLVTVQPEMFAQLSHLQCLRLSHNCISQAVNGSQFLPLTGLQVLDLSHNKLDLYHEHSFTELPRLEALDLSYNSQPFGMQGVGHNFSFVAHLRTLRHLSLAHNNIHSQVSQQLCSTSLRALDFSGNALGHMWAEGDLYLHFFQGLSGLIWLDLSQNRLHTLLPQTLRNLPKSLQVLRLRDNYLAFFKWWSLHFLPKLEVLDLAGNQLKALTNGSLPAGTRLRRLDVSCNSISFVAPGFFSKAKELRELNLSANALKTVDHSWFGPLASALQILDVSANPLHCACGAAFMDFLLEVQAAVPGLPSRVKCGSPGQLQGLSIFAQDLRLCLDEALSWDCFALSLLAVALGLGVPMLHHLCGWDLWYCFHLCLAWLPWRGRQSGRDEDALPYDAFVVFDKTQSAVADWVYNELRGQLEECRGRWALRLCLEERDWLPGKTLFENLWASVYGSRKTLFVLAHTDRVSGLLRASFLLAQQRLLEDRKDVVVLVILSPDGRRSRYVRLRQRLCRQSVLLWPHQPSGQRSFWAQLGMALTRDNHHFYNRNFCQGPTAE
Assay type: cell-based
Parameters: host or cells: HEK293 (HEK-Blue hTLR9)
Method: The following tests were carried out in order to determine the activity of the compounds of formula (I) and (Ia) in HEK293-Blue-hTLR-7/8/9 cells assay.
A stable HEK293-Blue-hTLR-9 cell line was purchased from InvivoGen (Cat. #: hkb-htlr9, San Diego, California, USA). These cells were originally designed for studying the stimulation of human TLR9 by monitoring the activation of NF-κB. A SEAP (secreted embryonic alkaline phosphatase) reporter gene was placed under the control of the IFN-β minimal promoter fused to five NF-κB and AP-1-binding sites. The SEAP was induced by activating NF-κB and AP-1 via stimulating HEK-Blue hTLR9 cells with TLR9 ligands. Therefore the reporter expression was declined by TLR9 antagonist under the stimulation of a ligand, such as ODN2006 (Cat. #: tlrl-2006-1, Invivogen, San Diego, California, USA), for incubation of 20 hrs. The cell culture supernatant SEAP reporter activity was determined using QUANTI-Blue™ kit (Cat. #: rep-qb1, Invivogen, San Diego, California, USA) at a wavelength of 640 nm, a detection medium that turns purple or blue in the presence of alkaline phosphatase.
HEK293-Blue-hTLR9 cells were incubated at a density of 250,000-450,000 cells/mL in a volume of 170 μL in a 96-well plate in Dulbecco's Modified Eagle's medium (DMEM) containing 4.5 g/L glucose, 50 U/mL penicillin, […], […], 2 mM L-glutamine, 10% (v/v) heat-inactivated fetal bovine serum with addition of 20 μL test compound in a serial dilution in the presence of final DMSO at 1% and 10 μL of 20 uM ODN2006 in above DMEM, perform incubation under 37° C. in a CO2 incubator for 20 hrs. Then 20 μL of the supernatant from each well was incubated with 180 μL Quanti-blue substrate solution at 37° C. for 2 h and the absorbance was read at 620˜655 nm using a spectrophotometer.
The signaling pathway that TLR9 activation leads to downstream NF-κB activation has been widely accepted, and therefore similar reporter assay was modified for evaluating TLR9 antagonist.

How did the IC50 turn out when `C[C@H]1CN(c2ccnc3c2cnn3C)Cc2ccc(N3CC4CNC[C@H]4C3=O)cc21` (relative stereo) [Example 17, cis-5-[(4R)-4-methyl-2-(1-methylpyrazolo[3,4-b]pyridin-4-yl)-3,4-dihydro-1H-isoquinolin-6-yl]-1,2,3,3a,6,6a-hexahydropyrrolo[3,4-c]pyrrol-4-one] was run?
Its IC50 is 217 nM.

`C[C@H]1CN(c2ccnc3c2cnn3C)Cc2ccc(N3C[C@@H]4CCNCC4C3=O)cc21` (relative stereo) [Example 55, cis-2-[(4R)-4-methyl-2-(1-methylpyrazolo[3,4-b]pyridin-4-yl)-3,4-dihydro-1H-isoquinolin-6-yl]-3a,4,5,6,7,7a-hexahydro-1H-pyrrolo[3,4-c]pyridin-3-one] was tested. Which IC50 did it give?
Its IC50 is 137 nM.

Which IC50 does the source give for `C[C@H]1CN(c2ccnc3c2cnn3C)Cc2ccc(N3C[C@]4(CCNC4)CC3=O)cc21` (single isomer, unassigned) [Example 54] here?
The IC50 was 334 nM.

For `C[C@H]1CN(c2ccnc3c2cnn3C)Cc2ccc(N3C[C@H]4CCNC[C@H]4C3=O)cc21` (single isomer, unassigned) [Example 56], which IC50 is on record?
The IC50 was 254 nM.

For `C[C@H]1CN(c2ccnc3c2cnn3C)Cc2ccc(N3C[C@@H]4CCNC[C@@H]4C3=O)cc21` (single isomer, unassigned) [Example 57], which IC50 is on record?
The IC50 was 226 nM.

Which IC50 does the source give for `Cc1cc(N2Cc3ccc(N4CCNCC4)cc3[C@@H](C)C2)c2cnn(C)c2n1` [Example 2, (4R)-2-(1,6-dimethylpyrazolo[3,4-b]pyridin-4-yl)-4-methyl-6-piperazin-1-yl-3,4-dihydro-1H-isoquinoline] here?
The IC50 was 86 nM.

For `CC1CN(c2ccnc3c2cnn3C)Cc2ccc(N3CCC4(CCNCC4)CC3)cc21` (centres unmarked) [Example 4, 3-[4-methyl-2-(1-methylpyrazolo[3,4-b]pyridin-4-yl)-3,4-dihydro-1H-isoquinolin-6-yl]-3,9-diazaspiro[5.5]undecane], which IC50 is on record?
Its IC50 is 275 nM.

`Cc1cc(N2Cc3ccc(N4CCC5(CCNCC5)CC4)cc3C(C)C2)c2cnn(C)c2n1` (centres unmarked) [Example 5, 3-[2-(1,6-dimethylpyrazolo[3,4-b]pyridin-4-yl)-4-methyl-3,4-dihydro-1H-isoquinolin-6-yl]-3,9-diazaspiro[5.5]undecane] was tested. Which IC50 did it give?
The IC50 was 123 nM.

How did the IC50 turn out when `Cn1ncc2c(N3Cc4ccc(N5CCC6(CCNCC6)CC5)cc4C(C)(C)C3)ccnc21` [Example 6, 3-[4,4-dimethyl-2-(1-methylpyrazolo[3,4-b]pyridin-4-yl)-1,3-dihydroisoquinolin-6-yl]-3,9-diazaspiro[5.5]undecane] was run?
The IC50 was 112 nM.

How did the IC50 turn out when `C[C@H]1CN(c2ccnc3c2cnn3C)Cc2ccc(N3CCN(C(=O)C4CCNCC4)CC3)cc21` [Example 7, 4-piperidyl-[4-[(4R)-4-methyl-2-(1-methylpyrazolo[3,4-b]pyridin-4-yl)-3,4-dihydro-1H-isoquinolin-6-yl]piperazin-1-yl]methanone] was run?
Its IC50 is 104 nM.

Which IC50 does the source give for `C[C@H]1CN(c2ccnc3c2cnn3C)Cc2ccc(N3CCN(C(=O)C4CCCN4)CC3)cc21` (stereo partly drawn) [Example 8, pyrrolidin-2-yl-[4-[(4R)-4-methyl-2-(1-methylpyrazolo[3,4-b]pyridin-4-yl)-3,4-dihydro-1H-isoquinolin-6-yl]piperazin-1-yl]methanone] here?
Its IC50 is 140 nM.

With `C[C@H]1CN(c2ccnc3c2cnn3C)Cc2ccc(N3CCN(c4cc5c(cn4)CCNC5)CC3)cc21` [Example 9, 7-[4-[(4R)-4-methyl-2-(1-methylpyrazolo[3,4-b]pyridin-4-yl)-3,4-dihydro-1H-isoquinolin-6-yl]piperazin-1-yl]-1,2,3,4-tetrahydro-2,6-naphthyridine] as the compound, how does the IC50 read?
The IC50 was 117 nM.

With `C[C@H]1CN(c2ccnc3c2cnn3C)Cc2ccc(N3CCC(N4CCNCC4)CC3)cc21` [Example 10, (4R)-4-methyl-2-(1-methylpyrazolo[3,4-b]pyridin-4-yl)-6-(4-piperazin-1-yl-1-piperidyl)-3,4-dihydro-1H-isoquinoline] as the compound, how does the IC50 read?
The IC50 was 58 nM.

With `CO[C@@H]1CN(C2CCN(c3ccc4c(c3)[C@@H](C)CN(c3ccnc5c3cnn5C)C4)CC2)C[C@H]1N` [Example 11, (3R,4R)-4-methoxy-1-[1-[(4R)-4-methyl-2-(1-methylpyrazolo[3,4-b]pyridin-4-yl)-3,4-dihydro-1H-isoquinolin-6-yl]-4-piperidyl]pyrrolidin-3-amine] as the compound, how does the IC50 read?
The IC50 was 63 nM.

For `C[C@H]1CN(c2ccnc3c2cnn3C)Cc2ccc(N3CCN(C(=O)C4CNCCO4)CC3)cc21` (stereo partly drawn) [Example 12, morpholin-2-yl-[4-[(4R)-4-methyl-2-(1-methylpyrazolo[3,4-b]pyridin-4-yl)-3,4-dihydro-1H-isoquinolin-6-yl]piperazin-1-yl]methanone], which IC50 is on record?
Its IC50 is 298 nM.

With `C[C@H]1CN(c2ccnc3c2cnn3C)Cc2ccc(N3CCC(O)(CN(C)C)CC3)cc21` [Example 13, 4-[(dimethylamino)methyl]-1-[(4R)-4-methyl-2-(1-methylpyrazolo[3,4-b]pyridin-4-yl)-3,4-dihydro-1H-isoquinolin-6-yl]piperidin-4-ol] as the compound, how does the IC50 read?
The IC50 was 399 nM.

`Cc1cc(N2Cc3ccc(N4CCC(O)(CN(C)C)CC4)cc3[C@@H](C)C2)c2cnn(C)c2n1` [Example 14, 4-[(dimethylamino)methyl]-1-[(4R)-2-(1,6-dimethylpyrazolo[3,4-b]pyridin-4-yl)-4-methyl-3,4-dihydro-1H-isoquinolin-6-yl]piperidin-4-ol] was tested. Which IC50 did it give?
Its IC50 is 158 nM.

With `CC1CN(c2ccc3c(c2)[C@@H](C)CN(c2ccnc4c2cnn4C)C3)CCN1` (stereo partly drawn) [Example 15, (4R)-4-methyl-6-(3-methylpiperazin-1-yl)-2-(1-methylpyrazolo[3,4-b]pyridin-4-yl)-3,4-dihydro-1H-isoquinoline] as the compound, how does the IC50 read?
The IC50 was 309 nM.

How did the IC50 turn out when `CCn1ncc2c(N3Cc4ccc(N5CCNCC5)cc4[C@@H](C)C3)ccnc21` [Example 22, (4R)-2-(1-ethylpyrazolo[3,4-b]pyridin-4-yl)-4-methyl-6-piperazin-1-yl-3,4-dihydro-1H-isoquinoline] was run?
The IC50 was 412 nM.

For `CO[C@@H]1CN(c2ccc3c(c2)[C@@H](C)CN(c2cc(C)nc4c2cnn4C)C3)C[C@H]1N` [Example 23, (3R,4R)-4-methoxy-1-[(4R)-2-(1,6-dimethylpyrazolo[3,4-b]pyridin-4-yl)-4-methyl-3,4-dihydro-1H-isoquinolin-6-yl]pyrrolidin-3-amine], which IC50 is on record?
The IC50 was 115 nM.

`C[C@H]1CN(c2ccnc3c2cnn3C)Cc2ccc(N3C[C@H]4CNCCN4C3=O)cc21` [Example 24, (8aR)-2-[(4R)-4-methyl-2-(1-methylpyrazolo[3,4-b]pyridin-4-yl)-3,4-dihydro-1H-isoquinolin-6-yl]-1,5,6,7,8,8a-hexahydroimidazo[1,5-a]pyrazin-3-one] was tested. Which IC50 did it give?
The IC50 was 311 nM.

`C[C@H]1CN(c2ccnc3c2cnn3C)Cc2ccc(N3CC4(CCNCC4)OC3=O)cc21` [Example 26, 3-[(4R)-4-methyl-2-(1-methylpyrazolo[3,4-b]pyridin-4-yl)-3,4-dihydro-1H-isoquinolin-6-yl]-1-oxa-3,8-diazaspiro[4.5]decan-2-one] was tested. Which IC50 did it give?
The IC50 was 73 nM.

For `C[C@H]1CN(c2ccnc3c2cnn3C)Cc2ccc(N3C4CCC3CNC4)cc21` [Example 27, (4R)-6-(3,8-diazabicyclo[3.2.1]octan-8-yl)-4-methyl-2-(1-methylpyrazolo[3,4-b]pyridin-4-yl)-3,4-dihydro-1H-isoquinoline], which IC50 is on record?
The IC50 was 185 nM.
